Measurements from patent US11384055B2 (BIOMARIN PHARMACEUTICAL INC., priority 2017, dated 2022).

Molecular target: T1, Human GO (Homo sapiens, UniProt Q9UJM8)
T1 construct: purchased Novus Biologicals NBP1-72412
T1 sequence (Q9UJM8 1-370): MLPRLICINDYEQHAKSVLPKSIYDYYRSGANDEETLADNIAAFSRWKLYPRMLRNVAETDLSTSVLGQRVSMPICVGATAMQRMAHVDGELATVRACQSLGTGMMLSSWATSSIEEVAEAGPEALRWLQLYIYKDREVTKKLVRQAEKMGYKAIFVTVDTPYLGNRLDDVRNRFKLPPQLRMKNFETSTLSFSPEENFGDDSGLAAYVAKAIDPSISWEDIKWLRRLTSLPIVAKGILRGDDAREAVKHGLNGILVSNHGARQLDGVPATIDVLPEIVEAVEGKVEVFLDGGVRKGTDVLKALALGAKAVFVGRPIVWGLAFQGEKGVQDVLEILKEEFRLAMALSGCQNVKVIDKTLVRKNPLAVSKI
Experiment: GO enzymatic assay (coupled fluorescence/HRP assay, glycolate substrate)
Assay type: biochemical
Conditions: Table 4; read-out: Range (range of IC50 values calculated from the enzymatic assays)
Outline: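 Coupled HRP/fluorescence read-out of glycolate oxidation by human GO in 50 mM potassium phosphate buffer (pH 7). Inhibitors added across a concentration range.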

SMILES	IC50 [nM]
O=C(O)c1[nH]nnc1Oc1ccc(Cl)c(OCc2ccc(OC(F)(F)F)cc2)c1 [Compound 408, 4-(4-chloro-3-((4-(trifluoromethoxy)benzyl)oxy)phenoxy)-1H-1,2,3-triazole-5-carboxylic acid]	< 100
NS(=O)(=O)c1ccc(-c2ccc(Oc3nn[nH]c3C(=O)O)cc2)cc1 [Compound 413, 4-((4′-sulfamoyl-[1,1′-biphenyl]-4-yl)oxy)-1H-1,2,3-triazole-5-carboxylic acid]	< 100
O=C(O)c1[nH]nnc1Oc1ccc(Cl)c(OCc2ccc(C(F)(F)F)cc2)c1 [Compound 415, 4-(4-chloro-3-((4-(trifluoromethyl)benzyl)oxy)phenoxy)-1H-1,2,3-triazole-5-carboxylic acid]	< 100
N#Cc1ccc(Oc2nn[nH]c2C(=O)O)cc1OCc1ccc(OC(F)(F)F)cc1 [Compound 421, 4-(4-cyano-3-((4-(trifluoromethoxy)benzyl)oxy)phenoxy)-1H-1,2,3-triazole-5-carboxylic acid]	< 100
O=C(O)c1[nH]nnc1O[C@H]1C[C@@H]2CN(c3ccc(Cl)c(Cl)c3)C[C@@H]2C1 [Compound 427, 4-(((3aR,5s,6aS)-2-(3,4-dichlorophenyl)octahydrocyclopenta[c]pyrrol-5-yl)oxy)-1H-1,2,3-triazole-5-carboxylic acid]	< 100
O=C(O)c1[nH]nnc1S[C@H]1C[C@@H]2CN(c3ccc(Cl)c(Cl)c3)C[C@@H]2C1 [Compound 428, 4-(((3aR,5s,6aS)-2-(3,4-dichlorophenyl)octahydrocyclopenta[c]pyrrol-5-yl)thio)-1H-1,2,3-triazole-5-carboxylic acid]	< 100
O=C(O)c1[nH]nnc1OC1CCN(c2cc(OC(F)(F)F)ccc2Cl)CC1 [Compound 429, 4-((1-(2-chloro-5-(trifluoromethoxy)phenyl)piperidin-4-yl)oxy)-1H-1,2,3-triazole-5-carboxylic acid]	< 100
O=C(O)c1[nH]nnc1CSC1CCC2(CCCC2)CC1 [Compound 435, 4-((spiro[4.5]decan-8-ylthio)methyl)-1H-1,2,3-triazole-5-carboxylic acid]	< 100
COC1(c2ccc(OC(F)(F)F)cc2)CC(Oc2nn[nH]c2C(=O)O)C1 (stereo not shown) [Compound 440, 4-(3-methoxy-3-(4-(trifluoromethoxy)phenyl)cyclobutoxy)-1H-1,2,3-triazole-5-carboxylic acid]	100 to 1000
O=C(O)c1[nH]nnc1S[C@H]1CC[C@@H](c2ccc(N3CCCCC3)c(Cl)c2)CC1 [Compound 442-1, 4-(((cis)-4-(3-chloro-4-(piperidin-1-yl)phenyl)cyclohexyl)thio)-1H-1,2,3-triazole-5-carboxylic acid 2,2,2-trifluoroacetate]	< 100
O=C(O)c1[nH]nnc1S[C@H]1CC[C@H](c2ccc(N3CCCCC3)c(Cl)c2)CC1 [Compound 442-2, 4-(((trans)-4-(3-chloro-4-(piperidin-1-yl)phenyl)cyclohexyl)thio)-1H-1,2,3-triazole-5-carboxylic acid 2,2,2-trifluoroacetate]	< 100
O=C(O)c1[nH]nnc1Oc1ccc(Cl)c(OC2CCC2)c1 [Example 448, 4-(4-chloro-3-cyclobutoxyphenoxy)-1H-1,2,3-triazole-5-carboxylic acid]	< 100
O=C(O)c1[nH]nnc1OC1CC(c2ccc(OC(F)(F)F)cc2)C1 (stereo not shown) [Example 449, 4-(3-(4-(trifluoromethoxy)phenyl)cyclobutoxy)-1H-1,2,3-triazole-5-carboxylic acid]	< 100
O=C(O)c1[nH]nnc1Oc1ccc(-c2ccc(-n3cccn3)cc2)cc1 [Example 450, 4-((4′-(1H-pyrazol-1-yl)-[1,1′-biphenyl]-4-yl)oxy)-1H-1,2,3-triazole-5-carboxylic acid 2,2,2-trifluoroacetate]	< 100
O=C(O)c1[nH]nnc1S[C@H]1CC[C@H](c2ccc(-n3cccn3)cc2)CC1 [Example 459, 4-(((trans)-4-(4-(1H-pyrazol-1-yl)phenyl)cyclohexyl)thio)-1H-1,2,3-triazole-5-carboxylic acid 2,2,2-trifluoroacetate]	< 100
CC(C)c1cc(-c2ccc([C@H]3CC[C@H](Oc4nn[nH]c4C(=O)O)CC3)cc2)[nH]n1 [Example 464, 4-(((trans)-4-(4-(3-isopropyl-1H-pyrazol-5-yl)phenyl)cyclohexyl)oxy)-1H-1,2,3-triazole-5-carboxylic acid 2,2,2-trifluoroacetate]	< 100
O=C(O)c1[nH]nnc1O[C@H]1CC[C@H](c2ccc(-c3ccn[nH]3)c(CO)c2)CC1 [Example 466, 4-(((trans)-4-(3-(hydroxymethyl)-4-(1H-pyrazol-5-yl)phenyl)cyclohexyl)oxy)-1H-1,2,3-triazole-5-carboxylic acid]	< 100

More lines, now with the values ahead:

IC50 [nM]	SMILES
< 100	N#CC1(c2ccc(OC(F)(F)F)cc2)CCC(Oc2nn[nH]c2C(=O)O)CC1 (stereo not shown) [Compound 437, 4-((4-cyano-4-(4-(trifluoromethoxy)phenyl)cyclohexyl)oxy)-1H-1,2,3-triazole-5-carboxylic acid]
< 100	C[C@]1(c2ccc(OC(F)(F)F)cc2)CC[C@H](Oc2nn[nH]c2C(=O)O)CC1 [Compound 443, 4-(((1r,4r)-4-methyl-4-(4-(trifluoromethoxy)phenyl)cyclohexyl)oxy)-1H-1,2,3-triazole-5-carboxylic acid]
< 100	C[C@]1(c2ccc(OC(F)(F)F)cc2)CC[C@@H](Oc2nn[nH]c2C(=O)O)CC1 [Compound 444, 4-(((1s,4s)-4-methyl-4-(4-(trifluoromethoxy)phenyl)cyclohexyl)oxy)-1H-1,2,3-triazole-5-carboxylic acid]
< 100	O=C(O)c1[nH]nnc1O[C@H]1CC[C@H](c2ccc(OC3CC3)cc2)CC1 [Example 446, 4-(((trans)-4-(4-cyclopropoxyphenyl)cyclohexyl)oxy)-1H-1,2,3-triazole-5-carboxylic acid]
< 100	O=C(O)c1[nH]nnc1O[C@H]1CC[C@H](c2ccc(F)cc2)CC1 [Example 447, 4-(((trans)-4-(4-fluorophenyl)cyclohexyl)oxy)-1H-1,2,3-triazole-5-carboxylic acid]
< 100	O=C(O)c1[nH]nnc1N[C@H]1CC[C@H](c2ccc(OC(F)(F)F)cc2)CC1 [Example 451, 4-(((trans)-4-(4-(trifluoromethoxy)phenyl)cyclohexyl)amino)-1H-1,2,3-triazole-5-carboxylic acid]
< 100	O=C(O)c1[nH]nnc1N[C@H]1CC[C@@H](c2ccc(OC(F)(F)F)cc2)CC1 [Example 452, 4-(((cis)-4-(4-(trifluoromethoxy)phenyl)cyclohexyl)amino)-1H-1,2,3-triazole-5-carboxylic acid]
100 to 1000	O=C(O)c1[nH]nnc1OC1CCC(O)(c2ccc(OC(F)(F)F)cc2)CC1 (stereo not shown) [Example 453, 4-((4-hydroxy-4-(4-(trifluoromethoxy)phenyl)cyclohexyl)oxy)-1H-1,2,3-triazole-5-carboxylic acid]
< 100	O=C(O)c1[nH]nnc1OC1CC=C(c2ccc(OC(F)(F)F)cc2)CC1 (stereo not shown) [Example 454, 4-((4′-(trifluoromethoxy)-2,3,4,5-tetrahydro-[1,1′-biphenyl]-4-yl)oxy)-1H-1,2,3-triazole-5-carboxylic acid]
< 100	O=C(O)c1[nH]nnc1OC1C[C@@H]2CC(c3ccc(OC(F)(F)F)cc3)C[C@@H]2C1 (stereo partly drawn) [Example 455, 4-(((cis-3a,6a)-5-(4-(trifluoromethoxy)phenyl)octahydropentalen-2-yl)oxy)-1H-1,2,3-triazole-5-carboxylic acid]
100 to 1000	O=C(O)c1[nH]nnc1CO[C@H]1CC[C@H](c2ccc(OC(F)(F)F)cc2)CC1 [Example 456, 4-((((trans)-4-(4-(trifluoromethoxy)phenyl)cyclohexyl)oxy)methyl)-1H-1,2,3-triazole-5-carboxylic acid]
< 100	NS(=O)(=O)c1ccc([C@H]2CC[C@H](Oc3nn[nH]c3C(=O)O)CC2)cc1 [Example 457, 4-(((trans)-4-(4-sulfamoylphenyl)cyclohexyl)oxy)-1H-1,2,3-triazole-5-carboxylic acid]
< 100	O=C(O)c1[nH]nnc1O[C@H]1CC[C@H](c2ccc(OCC3CCCCC3)cc2)CC1 [Example 460, 4-(((trans)-4-(4-(cyclohexylmethoxy)phenyl)cyclohexyl)oxy)-1H-1,2,3-triazole-5-carboxylic acid]
< 100	O=C(O)c1[nH]nnc1SC1C[C@@H]2CC(c3ccc(OC(F)(F)F)cc3)C[C@@H]2C1 (stereo partly drawn) [Example 461, 4-(((cis-3a,6a)-5-(4-(trifluoromethoxy)phenyl)octahydropentalen-2-yl)thio)-1H-1,2,3-triazole-5-carboxylic acid]
< 100	O=C(O)c1[nH]nnc1O[C@H]1CC[C@H](c2ccc(OCCC3CCCCC3)cc2)CC1 [Example 462, 4-(((trans)-4-(4-(2-cyclohexylethoxy)phenyl)cyclohexyl)oxy)-1H-1,2,3-triazole-5-carboxylic acid]
< 100	O=C(O)c1[nH]nnc1O[C@H]1CC[C@H](c2ccc(OCCCO)cc2)CC1 [Example 463, 4-(((trans)-4-(4-(3-hydroxypropoxy)phenyl)cyclohexyl)oxy)-1H-1,2,3-triazole-5-carboxylic acid]
100 to 1000	CN(c1nn[nH]c1C(=O)O)[C@H]1CC[C@@H](c2ccc(OC(F)(F)F)cc2)CC1 [Example 465, 4-(methyl((cis)-4-(4-(trifluoromethoxy)phenyl)cyclohexyl)amino)-1H-1,2,3-triazole-5-carboxylic acid]
